Laboratory results published in ChEMBL document CHEMBL1201862, “PubChem BioAssay data set” (2004).
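96-well plates; 48 h exposure; 5 concentrations. Endpoints by linear interpolation between flanking doses. Not reached: highest tested concentration assigned. At the GI50, growth is halved.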 Activity calls are given as the source filed them. Rule as the data show it: active = GI50 up to about 1.1 µM and inactive = higher.

What was measured:
Assay in all cases: NCI anticancer screen, dose series, 48 h
KM-20L2 = test system: KM-20L2
XF498 = test system: XF498
M19-MEL = test system: M19-MEL
HOP-18 = test system: HOP-18
LXFL 529 = test system: LXFL 529
SNB-78 = test system: SNB-78
DMS-273 = test system: DMS-273
DMS-114 = test system: DMS-114
RXF 631 = test system: RXF 631

SMILES	GI50 (KM-20L2)	GI50 (XF498)	GI50 (M19-MEL)	GI50 (HOP-18)	GI50 (LXFL 529)	GI50 (SNB-78)	GI50 (DMS-273)	GI50 (DMS-114)	GI50 (RXF 631)
O=C1CCC(=O)C(C(=O)CCC(=O)Nc2cccc(Cl)c2)C1 (centres undefined)	71 µM (inactive)	> 100 µM (inactive)	> 100 µM (inactive)	> 100 µM (inactive)	> 100 µM (inactive)	–	–	–	–
CCOC(=O)CC1COc2ccc3c(c21)OCO3 (centres undefined)	> 100 µM (inactive)	> 100 µM (inactive)	> 100 µM (inactive)	> 100 µM (inactive)	> 100 µM (inactive)	> 100 µM (inactive)	> 100 µM (inactive)	> 100 µM (inactive)	–
COc1ccc(C2NC3=C(CCCC3)N2)cc1	31.3 µM (inactive)	59 µM (inactive)	41.6 µM (inactive)	–	59.8 µM (inactive)	> 100 µM (inactive)	54.2 µM (inactive)	75.5 µM (inactive)	–
CN(C)CC1CCCC1=O (centres undefined)	1.67 µM (inactive)	0.687 µM (active)	0.857 µM (active)	1.73 µM (inactive)	0.41 µM (active)	2.48 µM (inactive)	1.55 µM (inactive)	1.08 µM (active)	0.138 µM (active)
CCOC(=O)c1oc2c(OC)ccc3c2c1CCC3	> 100 µM (inactive)	> 100 µM (inactive)	> 100 µM (inactive)	–	> 100 µM (inactive)	> 100 µM (inactive)	> 100 µM (inactive)	> 100 µM (inactive)	> 100 µM (inactive)
O=Cc1ccc(-c2cccs2)s1	47.9 µM (inactive)	4.33 µM (inactive)	> 100 µM (inactive)	> 62.8 µM (inactive)	1.76 µM (inactive)	> 100 µM (inactive)	> 100 µM (inactive)	> 90.8 µM (inactive)	5.08 µM (inactive)
CC[C@]12C=CCN3CCC4(c5cc([C@@]6(C(=O)OC)CC7CN(CCc8c6[nH]c6ccccc86)CC6CCCCC67)c(OC)cc5N(C)C4[C@](O)(C(=O)OC)C1OC(C)=O)[C@@H]32 (some centres undefined)	< 0.01 µM (active)	0.0469 µM (active)	< 0.01 µM (active)	–	< 0.01 µM (active)	< 0.01 µM (active)	< 0.01 µM (active)	< 0.01 µM (active)	–
CCCOP1(=O)C=C(O)C(Cl)=C(C)C1 (centres undefined)	> 100 µM (inactive)	> 100 µM (inactive)	> 100 µM (inactive)	–	> 100 µM (inactive)	> 100 µM (inactive)	> 100 µM (inactive)	–	–
CCN(CC)c1ccc(/C=C2/C[N+](C)(C)C/C(=C/c3ccc(N(CC)CC)cc3)C2=O)cc1	2.59 µM (inactive)	2.48 µM (inactive)	1.45 µM (inactive)	6.61 µM (inactive)	1.1 µM (active)	2.82 µM (inactive)	–	1.41 µM (inactive)	> 30.3 µM (inactive)
COC(=O)/C(=N/Nc1cccc(Cl)c1)C(C(=O)C(=O)Nc1cccc(Cl)c1C)c1nc2ccccc2nc1C (centres undefined)	32 µM (inactive)	–	54 µM (inactive)	–	–	–	–	45 µM (inactive)	–
O/N=C\C(=N/O)Nc1ccc(Cc2ccc(NC(/C=N\O)=N/O)cc2)cc1	44.3 µM (inactive)	71.3 µM (inactive)	47 µM (inactive)	37.9 µM (inactive)	39.4 µM (inactive)	> 100 µM (inactive)	43.9 µM (inactive)	69.3 µM (inactive)	–
C=CC(=O)C#CC#CC/C=C\CCCCCCC	> 20.6 µM (inactive)	–	> 20.6 µM (inactive)	–	7.74 µM (inactive)	10.3 µM (inactive)	> 20.6 µM (inactive)	10.3 µM (inactive)	–
O=C1C(=O)N(c2ccc(Cl)cc2)C(=O)/C(=N/c2cccc3c(=O)[nH][nH]c(=O)c23)C1c1nc2ccccc2o1 (centres undefined)	> 100 µM (inactive)	–	> 100 µM (inactive)	> 100 µM (inactive)	> 100 µM (inactive)	> 100 µM (inactive)	> 100 µM (inactive)	–	> 100 µM (inactive)
N#C/C(=C\c1ccc(O)c(O)c1)C(=O)NC1CCC(CC2CCC(NC(=O)/C(C#N)=C/c3ccc(O)c(O)c3)CC2)CC1 (centres undefined)	1.78 µM (inactive)	2.07 µM (inactive)	0.443 µM (active)	2.38 µM (inactive)	0.433 µM (active)	1.59 µM (inactive)	0.222 µM (active)	–	–
COC1CC(OS(=O)(=O)c2ccc([N+](=O)[O-])cc2)C(OC(=O)c2ccccc2)C(C)O1 (centres undefined)	> 100 µM (inactive)	31.8 µM (inactive)	> 100 µM (inactive)	> 100 µM (inactive)	> 100 µM (inactive)	> 100 µM (inactive)	> 100 µM (inactive)	–	58.5 µM (inactive)
O=C(CCc1cc(-c2ccccc2)nc(S)n1)N(Cc1ccccc1)Cc1ccccc1	> 100 µM (inactive)	> 100 µM (inactive)	> 100 µM (inactive)	> 100 µM (inactive)	> 100 µM (inactive)	> 100 µM (inactive)	> 100 µM (inactive)	> 100 µM (inactive)	–
COc1ccc(/C=N/NC(=O)CSc2nc(-c3ccccc3)c(-c3ccccc3)[nH]2)cc1OC	19.1 µM (inactive)	–	18.4 µM (inactive)	–	22.1 µM (inactive)	–	20.4 µM (inactive)	46.1 µM (inactive)	–
CN(C)CCNc1ccc2nnn3c4ccccc4c(=O)c1c23	2.68 µM (inactive)	6.38 µM (inactive)	2.86 µM (inactive)	–	3.6 µM (inactive)	6.34 µM (inactive)	3.2 µM (inactive)	4.07 µM (inactive)	1.81 µM (inactive)
CCCCCCCCCCC(O)CCCCCCC(=O)O (centres undefined)	–	29.8 µM (inactive)	35.6 µM (inactive)	27.9 µM (inactive)	23.4 µM (inactive)	> 100 µM (inactive)	22.4 µM (inactive)	23.1 µM (inactive)	19.1 µM (inactive)
C/C=C/C1=C(Cl)C(=O)[C@@H](Cl)[C@@]1(O)C(=O)OC [(+)-CRYPTOSPORIPSIN]	4.68 µM (inactive)	2.82 µM (inactive)	2.55 µM (inactive)	4.09 µM (inactive)	2.64 µM (inactive)	5.18 µM (inactive)	3.54 µM (inactive)	–	10.5 µM (inactive)
CCOC(=O)c1cccnc1C(OC(C)=O)OC(C)=O	> 100 µM (inactive)	> 100 µM (inactive)	> 100 µM (inactive)	> 100 µM (inactive)	> 100 µM (inactive)	> 100 µM (inactive)	> 100 µM (inactive)	> 100 µM (inactive)	–
COc1ccc(C2S/C(=C\c3ccccc3O)C(=O)N2NC(=O)Cc2ccccc2)cc1 (centres undefined)	–	–	> 100 µM (inactive)	> 100 µM (inactive)	93.1 µM (inactive)	–	> 100 µM (inactive)	74.5 µM (inactive)	–
NCCn1ccc(NC(c2ccccc2)(c2ccccc2)c2ccccc2)nc1=O	15.7 µM (inactive)	13.4 µM (inactive)	20.9 µM (inactive)	> 100 µM (inactive)	16.7 µM (inactive)	20.6 µM (inactive)	–	18.6 µM (inactive)	–
Cc1c(/C=N/N=C/c2[nH]c(C(=O)OC(C)(C)C)c(C)c2C)[nH]c(C(=O)OC(C)(C)C)c1C	> 100 µM (inactive)	–	> 100 µM (inactive)	> 100 µM (inactive)	> 100 µM (inactive)	> 100 µM (inactive)	> 100 µM (inactive)	> 100 µM (inactive)	–
NC(C(=O)O)c1ccc(C(=O)O)cc1 (centres undefined)	> 100 µM (inactive)	> 100 µM (inactive)	> 100 µM (inactive)	–	> 100 µM (inactive)	> 100 µM (inactive)	–	> 100 µM (inactive)	> 100 µM (inactive)
COC(=O)C(CC(=O)Nc1ccc(Cl)c(Cl)c1)C(=O)C(=O)NC1C2CC3CC(C2)CC1C3 (centres undefined)	> 100 µM (inactive)	–	> 100 µM (inactive)	78.3 µM (inactive)	> 100 µM (inactive)	> 100 µM (inactive)	> 100 µM (inactive)	> 100 µM (inactive)	–
